# Where two headings read alike, the source gives them in different places.
# Key:
# SF295 cells = assay type: cell-based; conditions: SF295, unprimed; iBH3, 25°C, 1 hr
# Method: (§1) To test the possibility that FS1, FS2 or FS3 may directly activate BAK and BAX, we measured cytochrome c release in two ‘unprimed’ cell lines (PC-3 and SF295). Unprimed cells require BAK/BAX activators to release cytochrome c ([Certo et al., 2006]).
# (§2) Cell line identities were confirmed by STR profiling.
# (§3) Plates were incubated at 25°C for 1 hr.
# [1] = tested on: BCR-ABL-expressing B-lineage acute lymphoblastic leukemia cells dependent on Bfl-1; assay: BH3 profiling, mitochondrial depolarization (JC-1) in permeabilized cells; assay type: cell-based; design: key to Bottom (best-fit value) / Top (best-fit value): % depolarization, normalized to DMSO (0) and FCCP (100) controls
# Method: as §2
# (§4) Peptides were titrated by serial dilution in MEB buffer (150 mM Mannitol, 10 mM HEPES-KOH pH 7.5, 50 mM KCl, 0.02 mM EGTA, 0.02 mM EDTA, 0.1% BSA and 5 mM Succinate) containing 20 μg/mL oligomycin, 50 μg/mL digitonin, 2 μM JC-1 and 10 mM 2-mercaptoethanol in 384-well plates. Controls for no depolarization (1% DMSO) and complete depolarization with the mitochondrial oxidative phosphorylation uncoupler FCCP (20 μM) were included for data normalization. […] 15 μL of cell suspension was added to each well containing 15 μL of treatment solution. […] To produce percent depolarization, the area under the resultant curve was calculated and normalized to the assay controls. Peptide titration curves were fit to sigmoidal dose-response curves using Graphpad PRISM seven to obtain EC50 values.
# [2] = tested on: BCR-ABL-expressing B-lineage acute lymphoblastic leukemia cells dependent on Mcl-1; assay: as above; assay type: cell-based; conditions: BH3 profiling fits Mcl-1, sigmoidal dose-response (variable slope)
# Method: as §2, §4
# PC-3 cells = assay: iBH3, cytochrome c release in unprimed cells (BAK/BAX activator function); assay type: cell-based; conditions: PC-3, unprimed; iBH3, 25°C, 1 hr
# Method: as §1, §2, §3
# [3] = tested on: BCR-ABL-expressing B-lineage acute lymphoblastic leukemia cells dependent on Bcl-2; assay: iBH3 profiling, cytochrome c release; assay type: cell-based; conditions: iBH3 fits Bcl-2, sigmoidal dose-response (variable slope)
# Method: (§5) As an additional test for on-pathway activity, we measured cytochrome c release in the same engineered cell lines in response to peptide treatment, using iBH3 profiling ([Ryan et al., 2016]).
# (§6) The creation and characterization of the BCR-ABL-expressing B-lineage acute lymphoblastic leukemia suspension cell lines with engineered dependencies on human versions of anti-apoptotic genes is detailed in [Koss et al. (2016)]). Cells were grown in RPMI (Life Technologies, Carlsbad, CA) with 10% fetal bovine serum, 2 mM L-glutamine, 10 mL/L 100x Pen/Strep (Life Technologies # 15140122), 25 mM HEPES and 10 mL/L 100x NEAA (Life Technologies, 11140050). The adherent cell lines PC-3 (RRID: CVCL_0035) and SF295 (RRID: CVCL_1690) are from the NCI60 panel ([Lorenzi et al., 2009]) and were grown in RPMI (Life Technologies) with 10% fetal bovine serum, 2 mM L-glutamine and 10 mL/L 100x Pen/Strep (Life Technologies # 15140122 ). Cell line identities were confirmed by STR profiling. The Lookout Mycoplasma PCR detection kit (Sigma) was used to detect mycoplasma infection.
# (§7) Cells were suspended in MEB buffer (150 mM mannitol, 50 mM KCl, 10 mM HEPES, 5 mM succinic acid, 20 μM EGTA, 20 μM EDTA, 0.1% BSA, final pH 7.4) at 0.5*10^6 cells/mL (adherent lines) or 2 *10^6 cells/mL (suspension lines). Cell suspension was added to a 384 non-binding well plate (10 μL/well) containing peptides at 2X final concentration in MEB with 20 μg/mL digitonin. Plates were incubated at 25°C for 1 hr. To terminate exposure, 10 μL of 4% formaldehyde in PBS was added to each well, plates were incubated for 10 min before addition of 10 μL N2 buffer (1.7M Tris, 1.25M glycine, pH 9.1) for 5 min. 10 μL of staining buffer (2% Tween20, 10% BSA, PBS) containing 10 μg/mL Hoechst 33342 and 1.25 μg/mL anti-cytochrome c Alexa647 conjugate (BioLegend clone 6H2.B4) was added to each well before sealing the plate and shaking overnight. The median fluorescence of the cytochrome c channel of Hoechst positive singlets was recorded by an IntelliCyt iQue Screener Plus. Cytochrome c release was determined by normalizing the median fluorescence intensity (MFI) data to positive control wells (Alamethicin) and negative control wells (DMSO) as follows: Cytochromecrelease=1−(MFIsample−MFIAlamethicin)/(MFIDMSO−MFIAlamethicin)
# [4] = tested on: BCR-ABL-expressing B-lineage acute lymphoblastic leukemia cells dependent on Bcl-xL; assay: iBH3 profiling, cytochrome c release; assay type: cell-based; conditions: iBH3 fits Bcl-xL, sigmoidal dose-response (variable slope)
# Method: as §5, §6, §7
# [5] = tested on: BCR-ABL-expressing B-lineage acute lymphoblastic leukemia cells dependent on Bfl-1
# Method: as §5, §6, §7
# [6] = tested on: BCR-ABL-expressing B-lineage acute lymphoblastic leukemia cells dependent on Mcl-1; conditions: iBH3 fits Mcl-1, sigmoidal dose-response (variable slope)
# Method: as §5, §6, §7
# [7] = log of EC50, x axis Log [Peptide M]
# [8] = iBH3 fits Bfl-1, sigmoidal dose-response (variable slope), fit of 3 replicates
substance,measurement,setting,value
Ac-QWVREIAAGLRRAADDVNAQVER-NH2 [FS2],peptide concentration leading to cytochrome c release in unprimed cells,SF295 cells,> 100 µM
same,mitochondrial depolarization pattern in BH3 profiling,"[1]; 100 nM peptide, four cell lines engineered to depend on Bcl-2, Bcl-xL, Mcl-1 or Bfl-1, JC-1",promoted depolarization only in Bfl-1 dependent cells
same,HillSlope (best-fit value),"[1]; BH3 profiling fits Bfl-1, sigmoidal dose-response (variable slope)",0.7703
same,Bottom (best-fit value),"[1]; BH3 profiling fits Bfl-1, sigmoidal dose-response (variable slope), constraint Bottom < 5",0.97
same,Top (best-fit value),"[1]; BH3 profiling fits Bfl-1, sigmoidal dose-response (variable slope), constraint Top > 78",84.17
same,LogEC50 (best-fit value),"[1]; BH3 profiling fits Bfl-1, sigmoidal dose-response (variable slope), x = Log [Peptide] M, 55-56 Y values analyzed",-7.679
same,HillSlope (best-fit value),[2],0.4032
same,Top (best-fit value),[2]; constrained (Top < 100 or Top > 78),~ 100
same,LogEC50 (best-fit value),"[2]; x = Log [Peptide] M, fits hit constraint or ambiguous",-4.604
same,peptide concentration leading to cytochrome c release in unprimed cells,PC-3 cells,> 100 µM
same,LogEC50 (best-fit value),[3]; [7],-4.564
same,HillSlope (best-fit value),[3],1.006
same,Bottom (best-fit value),[3]; fit of 3 replicates,0.134
same,Top (best-fit value),[3]; fit of 3 replicates,1.087
same,LogEC50 (best-fit value),[4]; [7],~ -3.991
same,HillSlope (best-fit value),[4],~ 14.29
same,Bottom (best-fit value),[4]; fit of 3 replicates,0.1223
same,Top (best-fit value),[4]; fit of 3 replicates,~ 0.6231
same,LogEC50 (best-fit value),"[5]; iBH3 fits Bfl-1, log of EC50, x axis Log [Peptide M], sigmoidal dose-response (variable slope)",~ -9.301
same,HillSlope (best-fit value),"[5]; iBH3 fits Bfl-1, sigmoidal dose-response (variable slope)",0.6008
same,Bottom (best-fit value),[5]; [8],~ -2.146
same,Top (best-fit value),[5]; [8],1.01
same,cytochrome c release pattern in iBH3,"[5]; low concentrations, highly primed cells of known anti-apoptotic protein dependency",selectively induced cytochrome c release only in Bfl-1 dependent cell lines
same,LogEC50 (best-fit value),[6]; [7],-4.058
same,HillSlope (best-fit value),[6],1.725
same,Bottom (best-fit value),[6]; fit of 3 replicates,0.1056
same,Top (best-fit value),[6]; fit of 3 replicates,1.316
